Data from patent US9518166B2, “Film forming auxiliary agent composition for emulsion resin” (ADEKA CORPORATION, priority 2013, dated 2016).

Experiments:
Type in all cases: physicochemical
[1] = Test 2: long-term stability test, resin 2; design: key: ⊚: homogeneous solution; ◯: no separation, but solution was partially heterogeneous (still can be used); Δ: slight separation was confirmed; X: complete separation or sedimentation was confirmed; conditions: 5 mass % in resin 2, one week at 40° C.
Experimental: (§1) Inventive Products 1 to 14 and Comparative Products 1 to 11 were each compounded at 5 mass % with the test emulsion resins, 80 ml of each product obtained was introduced by 80 ml into a 100-ml screw pipe, closed with a lid and allowed to stay for a week in a thermostat at 40° C. The external appearance of the emulsion resins thereafter was determined according to the following criteria. • ⊚: homogeneous solution • ◯: no separation, but solution was partially heterogeneous (still can be used) • Δ: slight separation was confirmed • X: complete separation or sedimentation was confirmed <Test 3: Water Solubility Confirmation Test>

[2] = Boiling point
[3] = Test 2: long-term stability test, resin 1; design: key: ⊚: homogeneous solution; ◯: no separation, but solution was partially heterogeneous (still can be used); Δ: slight separation was confirmed; X: complete separation or sedimentation was confirmed; conditions: 5 mass % in resin 1, one week at 40° C.
Experimental: as §1

| Structure (SMILES) | Test 2: long-term stability, external appearance [1] | boiling point [2] [°C] | Test 2: long-term stability, external appearance [3] |
| --- | --- | --- | --- |
| CCCCOCCO [Comparative Product 10, butyl cellosolve] | ⊚ | 171 | ⊚ |
| CN1CCCC1=O [Comparative Product 11, N-methylpyrrolidone] | ⊚ | 202 | ⊚ |
